Legend:
CRBN = molecular target: T1, CRBN (Homo sapiens, UniProt Q96SW2); assay: Intracellular CRBN binding in NanoLuc-CRBN-overexpressing HEK293T cells; type: cell-based; details: read-out: Cellular CRBN Binding IC50 (nM ± SD)
T1 construct: expressed in transfected cells; host or cells: HEK293T
Experimental: NanoLuc‐CRBN‐overexpressing HEK293T were seeded in 96‐well plates at a density of 2000 per well. The following day, compounds was added to the plate starting from 10 µM for a 3‐fold gradient dilution and incubated for 2 h. […] Finally, the signal was measured using an Envision plate reader (Revvity) and the data were analyzed using the GraphPad Prism 9.5 software.

CRBN-DDB1 = CRBN-DDB1 (Homo sapiens, UniProt Q96SW2); assay: CRBN binding assay, biochemical (HTRF); details: recombinant CRBN-DDB1, 1 h, read-out: Biochemical CRBN Binary Binding IC50 (nM ± SD)
Sequence of CRBN-DDB1 (Q96SW2 whole entry): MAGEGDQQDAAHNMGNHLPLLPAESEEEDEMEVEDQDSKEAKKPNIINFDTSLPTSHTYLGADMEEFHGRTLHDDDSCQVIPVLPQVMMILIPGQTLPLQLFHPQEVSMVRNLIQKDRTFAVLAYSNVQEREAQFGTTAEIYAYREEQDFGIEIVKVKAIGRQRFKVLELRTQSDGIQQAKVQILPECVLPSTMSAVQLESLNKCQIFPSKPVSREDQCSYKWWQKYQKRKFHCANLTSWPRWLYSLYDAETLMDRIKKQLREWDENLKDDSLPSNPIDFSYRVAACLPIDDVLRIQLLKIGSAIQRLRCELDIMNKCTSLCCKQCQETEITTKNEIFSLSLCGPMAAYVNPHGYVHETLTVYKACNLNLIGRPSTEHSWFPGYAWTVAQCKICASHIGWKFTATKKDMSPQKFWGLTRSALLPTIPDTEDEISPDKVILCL
Experimental: Next, 400 nL of compound solution (initial concentration 10 µM, followed by a three‐fold gradient dilution) was dispensed into the wells using the positive‐pressure‐based I‐DOT dispenser. After 1 h of incubation at room temperature, the HTRF signal was measured using an Envision plate reader (Revvity). Finally, the data were analyzed using non‐linear regression curves in GraphPad Prism 9.5 software.

TEAD1 [1] = molecular target: T2, TEAD1 (Homo sapiens, UniProt P28347+Q96SW2); assay: Immunoblot of TEAD1 degradation in TEAD1-mNeonGreen fusion NCI-H1299 cells; type: cell-based; details: 10 nM, 6 h, TEAD1-mNeonGreen NCI-H1299 cells
T2 construct: endogenous in cells; host or cells: NCI-H1299 (TEAD1-mNeonGreen knock-in)
T2 sequence (P28347 whole entry, the tested form may be a part): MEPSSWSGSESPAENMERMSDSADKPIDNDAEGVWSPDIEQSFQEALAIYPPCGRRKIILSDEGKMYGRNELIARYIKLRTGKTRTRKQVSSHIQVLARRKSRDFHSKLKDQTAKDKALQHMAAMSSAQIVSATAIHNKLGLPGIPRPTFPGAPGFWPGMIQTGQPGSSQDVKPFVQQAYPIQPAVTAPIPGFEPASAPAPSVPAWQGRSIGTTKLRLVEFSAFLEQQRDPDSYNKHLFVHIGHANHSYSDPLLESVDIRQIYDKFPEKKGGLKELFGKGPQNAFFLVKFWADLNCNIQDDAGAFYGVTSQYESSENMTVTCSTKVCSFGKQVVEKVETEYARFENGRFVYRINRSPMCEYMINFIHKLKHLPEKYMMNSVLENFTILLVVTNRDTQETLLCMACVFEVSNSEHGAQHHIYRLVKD
T2 sequence (Q96SW2 whole entry, the tested form may be a part): as the sequence (Q96SW2 whole entry) above
T2 sequence (Q16531 2-1140 partner limits assumed): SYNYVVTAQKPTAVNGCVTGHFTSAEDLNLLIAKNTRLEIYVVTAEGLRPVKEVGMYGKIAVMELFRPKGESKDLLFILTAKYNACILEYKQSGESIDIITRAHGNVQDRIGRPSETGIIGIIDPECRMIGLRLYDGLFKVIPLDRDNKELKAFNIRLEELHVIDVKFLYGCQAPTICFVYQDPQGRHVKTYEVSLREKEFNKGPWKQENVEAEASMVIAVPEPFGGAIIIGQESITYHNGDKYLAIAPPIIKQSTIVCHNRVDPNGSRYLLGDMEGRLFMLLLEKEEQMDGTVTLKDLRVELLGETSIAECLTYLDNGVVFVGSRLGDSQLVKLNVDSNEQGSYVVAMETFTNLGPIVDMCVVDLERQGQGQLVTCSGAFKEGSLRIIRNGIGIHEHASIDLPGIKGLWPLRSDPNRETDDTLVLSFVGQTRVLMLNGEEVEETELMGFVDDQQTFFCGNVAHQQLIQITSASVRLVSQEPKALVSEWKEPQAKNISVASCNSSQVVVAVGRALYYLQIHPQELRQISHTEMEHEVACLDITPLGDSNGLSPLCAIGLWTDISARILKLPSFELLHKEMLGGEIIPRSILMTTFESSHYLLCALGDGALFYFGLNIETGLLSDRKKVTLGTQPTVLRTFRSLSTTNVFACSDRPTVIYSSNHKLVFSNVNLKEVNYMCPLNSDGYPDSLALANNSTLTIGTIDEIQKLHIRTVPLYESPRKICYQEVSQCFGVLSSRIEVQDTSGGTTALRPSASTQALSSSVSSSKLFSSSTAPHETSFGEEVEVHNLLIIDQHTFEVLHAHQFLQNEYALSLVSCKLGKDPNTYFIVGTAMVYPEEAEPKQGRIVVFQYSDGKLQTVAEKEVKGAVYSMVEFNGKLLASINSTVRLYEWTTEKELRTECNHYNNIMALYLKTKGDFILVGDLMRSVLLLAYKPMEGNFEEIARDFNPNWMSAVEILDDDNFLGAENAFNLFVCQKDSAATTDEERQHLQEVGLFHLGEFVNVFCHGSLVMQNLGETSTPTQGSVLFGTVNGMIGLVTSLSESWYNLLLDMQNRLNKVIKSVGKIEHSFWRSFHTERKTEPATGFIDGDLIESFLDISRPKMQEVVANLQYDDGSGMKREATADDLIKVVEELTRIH
Experimental: (§1) Immunoblotting was carried out as previously described.^[ [29] ^] Cells were seeded in 6‐well plates (Yeasen, #84011ES50) at a density of 1 million cells per well. The following day, cells were treated with compounds at the required concentrations, with the DMSO concentration kept below 0.4‰ to prevent toxic effects on the cells. The collected cell pellets were washed three times with PBS (Meilunbio, #MA0015) and resuspended in 120 µL of RIPA lysis buffer (Meilunbio, #MA0151) containing 1% protease inhibitor (Meilunbio, #MB2678‐2). The cells were then sonicated on ice and centrifuged at 12 000 rpm for 15 min at 4 °C to remove cellular debris. Protein concentrations were determined using the BCA Protein Quantification Kit (Meilunbio, #MA0082‐1). The protein samples were normalized, boiled at 99 °C for 10 min, and then subjected to electrophoresis on a 10% SDS‐PAGE gel. The separated protein bands were transferred to nitrocellulose membranes, blocked with TBST containing 5% BSA, and incubated with the indicated primary antibodies. Finally, the blots were imaged using an Amersham Typhoon NIR imager.

TEAD1 [2] = molecular target: TEAD1 (Homo sapiens, UniProt P28347); assay: Immunoblot in wild-type / CRBN-knockout HEK293T cells and rescue experiment; type: cell-based; set-up: endogenous in cells; host or cells: HEK293T wild-type and CRBN-knockout; details: HEK293T cells, 1 h pretreatment
Sequence of TEAD1 (Homo sapiens, UniProt P28347) (P28347 whole entry): as the sequence (P28347 whole entry, the tested form may be a part) above
Experimental: as §1

KLE cells = assay: Cell viability assay (CTG, 72 h) KLE; type: cell-based; details: 3-day compound treatment
Experimental: (§2) Cells were seeded at a density of 1000 cells per well in 96‐well flat‐bottomed cell culture plates and cultured overnight at 37 °C with 5% CO2 to allow for cell attachment. The following day, different concentrations of compounds were added using an I‐DOT dispenser. After 72 h, 25 µL of CellTiter‐Meiluncell Luminescent Cell Viability Reagent (Meilunbio, #PWL111‐2) was added and incubated for 15 min at room temperature. Luminescence signals were then measured using an Envision plate reader (Revvity). Data were analyzed using GraphPad Prism 9.5 software.^[ [30] ^]

A172 cells = assay: Cell viability assay (CTG, 72 h) A172; type: cell-based; details: 3-day compound treatment
Experimental: as §2

ES2 cells = assay: Cell viability assay (CTG, 72 h) ES2; type: cell-based; details: 3-day compound treatment
Experimental: as §2

HOS cells = assay: Cell viability assay (CTG, 72 h) HOS; type: cell-based; details: 3-day compound treatment
Experimental: as §2

867 cancer cell lines = assay: PRISM assay (barcoded cell line screening, 5 days); type: cell-based;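 note: top test concentration 10 mM in eight-point dilution series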
Experimental: The principle of the PRISM assay has been described elsewhere and was conducted as previously outlined by the PRISM team at the Broad Institute.^[ [14], [31] ^] In PRISM (MTS027) experiments, KG‐FP‐003 was tested across 867 different cancer cell lines. Cells were treated with eight concentration gradients, ranging from 4.6 nM to […], in triplicate dilutions over a period of five days. Each plate was treated with 20 µM bortezomib as a positive control and DMSO as a negative control. Three replicate experiments were performed for each compound. The resulting data were analyzed using GraphPad PRISM 9.5.

T1 sequence (Q96SW2 whole entry): as the sequence (Q96SW2 whole entry) above

Row | SMILES | IC50 (CRBN) [nM] | IC50 (CRBN-DDB1) [nM] | Rescue: effect of pretreatment on KG-FP-003-mediated TEAD1 degradation (TEAD1 [2]) | also measured
1 | Nc1cccc2c1CN(C1CCC(=O)NC1=O)C2=O (stereo not drawn) [Lenalidomide, lenalidomide] | – | – | effectively blocked | –
2 | NS(=O)(=O)OC[C@@H]1C[C@@H](n2ccc3c(N[C@H]4CCc5ccccc54)ncnc32)C[C@@H]1O [MLN4924] | – | – | effectively blocked | –
3 | C=C(F)C(=O)N1C[C@@H](Nc2ncccn2)[C@H](OCc2ccc(C(F)(F)F)cc2)C1 [MYF-03-176, reference compound] | – | – | – | IC50 (KLE cells): 1410 ± 479 nM; IC50 (A172 cells): > 3000 nM; IC50 (ES2 cells): > 2000 nM; IC50 (HOS cells): 922 ± 404 nM; PRISM AUC (867 cancer cell lines; Cell line: A172, 5 days): 0.59; PRISM AUC (867 cancer cell lines; Cell line: ES2, 5 days): 1.00; PRISM AUC (867 cancer cell lines; Cell line: HOS, 5 days): 0.90; PRISM AUC (867 cancer cell lines; Cell line: KLE, 5 days): 1.00
4 | CC(C)C[C@H](NC(=O)[C@H](Cc1ccccc1)NC(=O)c1cnccn1)B(O)O [bortezomib] | – | – | effectively blocked | –

Continued, in another order:

Row | IC50 (CRBN) [nM] | IC50 (CRBN-DDB1) [nM] | Rescue: effect of pretreatment on KG-FP-003-mediated TEAD1 degradation (TEAD1 [2]) | SMILES | also measured
5 | 426 ± 176 | 126 ± 47 | – | CNC(=O)c1cc2c(c(F)c1-c1c(Cl)c(F)cc3c1C[C@@](CNC(=O)CCCCC(=O)Nc1ccc4c(c1)C(=O)N(C1CCC(=O)NC1=O)C4=O)(c1ccccc1)O3)[C@@H](O)[C@@H](C)C2 (stereo partly drawn) [KG-FP-008] | –
6 | 1380 ± 794 | 152 ± 12 | – | CNC(=O)c1cc2c(c(F)c1-c1c(Cl)c(F)cc3c1C[C@@](CN[C@H]1CC[C@H](C(=O)N4CCC(CC5CCN(C(=O)COc6ccc7c(c6)C(=O)N(C6CCC(=O)NC6=O)C7=O)CC5)CC4)CC1)(c1ccccc1)O3)[C@@H](O)[C@@H](C)C2 (stereo partly drawn) [KG-FP-009] | Target degradation by immunoblot (TEAD1 [1]): significant target degradation
7 | 1700 ± 384 | 474 ± 14 | – | CNC(=O)c1cc2c(c(F)c1-c1c(Cl)c(F)cc3c1C[C@@](CN[C@H]1CC[C@H](C(=O)NCCCCC(=O)Nc4ccc(C)c(N5CCC(=O)NC5=O)c4)CC1)(c1ccccc1)O3)[C@@H](O)[C@@H](C)C2 [KG-FP-010] | –
